Organism: Rattus norvegicus
Type: toxicity, organism-based, Sprague-Dawley
Details: in vivo, po, route oral GAVAGE, […]; for ABSOLUTE EOSINOPHIL / ABSOLUTE LYMPHOCYTE / ABSOLUTE MONOCYTE / ABSOLUTE SEGMENTED NEUTROPHIL / BASOPHIL / EOSINOPHIL / ERYTHROCYTE COUNT / HEMATOCRIT / HEMOGLOBIN / LEUKOCYTE COUNT / LYMPHOCYTE / MEAN CORPUSCULAR HEMOGLOBIN / MEAN CORPUSCULAR HEMOGLOBIN CONCENTRATION / MEAN CORPUSCULAR VOLUME / MONOCYTE / NEUTROPHIL / NUCLEATED RED BLOOD CELLS / PLATELET COUNT: tissue Blood; for ALANINE AMINOTRANSFERASE / ALBUMIN / ALKALINE PHOSPHATASE / ASPARTATE AMINOTRANSFERASE / BLOOD UREA NITROGEN / CARBON DIOXIDE / CHLORIDE / CHOLESTEROL / CREATINE PHOSPHOKINASE / CREATININE / GLUCOSE / LACTATE DEHYDROGENASE / LIPASE / PHOSPHORUS / POTASSIUM / SODIUM / TOTAL BILIRUBIN / TOTAL PROTEIN / URIC ACID: tissue Plasma
[1] = 0 mg/kg, 6 h, vehicle control, dose level Control, time 0.25 day
[2] = 0 mg/kg, 24 h, vehicle control, dose level Control, time 1 day
[3] = 400 mg/kg, 6 h, dose level Low, time 0.25 day

Description: DrugMatrix - Regimen: Single

ClC(Cl)(Cl)Cl [CARBON TETRACHLORIDE]
ABSOLUTE EOSINOPHIL [1]: 61.17 CELLS/uL
ABSOLUTE LYMPHOCYTE [1]: 12625.83 CELLS/uL
ABSOLUTE MONOCYTE [1]: 417.17 CELLS/uL
ABSOLUTE SEGMENTED NEUTROPHIL [1]: 1595.83 CELLS/uL
BASOPHIL [1]: 0%
EOSINOPHIL [1]: 0.33%
ERYTHROCYTE COUNT [1]: 5.46 x10E6/uL
HEMATOCRIT [1]: 36.02%
HEMOGLOBIN [1]: 13.55 G/DL
LEUKOCYTE COUNT [1]: 14.7 x10E3/uL
LYMPHOCYTE [1]: 85.83%
MEAN CORPUSCULAR HEMOGLOBIN [1]: 24.87 pg
MEAN CORPUSCULAR HEMOGLOBIN CONCENTRATION [1]: 37.65 G/DL
MEAN CORPUSCULAR VOLUME [1]: 66.03 fL
MONOCYTE [1]: 2.67%
NEUTROPHIL [1]: 11.17%
NUCLEATED RED BLOOD CELLS [1]: 0 /100WBC
PLATELET COUNT [1]: 1072.33 x10E3/uL
ALANINE AMINOTRANSFERASE [1]: 63.33 u/L
ALBUMIN [1]: 4.58 G/DL
ALKALINE PHOSPHATASE [1]: 285 u/L
ASPARTATE AMINOTRANSFERASE [1]: 116.5 u/L
BLOOD UREA NITROGEN [1]: 9.17 mg/dL
CARBON DIOXIDE [1]: 18.83 mmol/L
CHLORIDE [1]: 104.5 MEQ/L
CHOLESTEROL [1]: 68.67 mg/dL
CREATINE PHOSPHOKINASE [1]: 421 u/L
CREATININE [1]: 0.58 mg/dL
GLUCOSE [1]: 160.67 mg/dL
LACTATE DEHYDROGENASE [1]: 396 u/L
LIPASE [1]: 10.33 u/L
PHOSPHORUS [1]: 12.25 mg/dL
POTASSIUM [1]: 6.42 MEQ/L
SODIUM [1]: 142.77 MEQ/L
TOTAL BILIRUBIN [1]: 0.25 mg/dL
TOTAL PROTEIN [1]: 5.48 G/DL
URIC ACID [1]: 1.65 mg/dL
HEMATOCRIT (0 mg/kg, 24 h, dose level Control, time 1 day): 31.9%
ABSOLUTE EOSINOPHIL [2]: 23.83 CELLS/uL
ABSOLUTE LYMPHOCYTE [2]: 11026.5 CELLS/uL
ABSOLUTE MONOCYTE [2]: 98.5 CELLS/uL
ABSOLUTE SEGMENTED NEUTROPHIL [2]: 667.83 CELLS/uL
BASOPHIL [2]: 0%
EOSINOPHIL [2]: 0.17%
ERYTHROCYTE COUNT [2]: 4.92 x10E6/uL
HEMOGLOBIN [2]: 12.6 G/DL
LEUKOCYTE COUNT [2]: 11.82 x10E3/uL
LYMPHOCYTE [2]: 93%
MEAN CORPUSCULAR HEMOGLOBIN [2]: 25.7 pg
MEAN CORPUSCULAR HEMOGLOBIN CONCENTRATION [2]: 39.57 G/DL
MEAN CORPUSCULAR VOLUME [2]: 64.97 fL
MONOCYTE [2]: 0.83%
NEUTROPHIL [2]: 6%
NUCLEATED RED BLOOD CELLS [2]: 0 /100WBC
PLATELET COUNT [2]: 872.33 x10E3/uL
ALANINE AMINOTRANSFERASE [2]: 82.67 u/L
ALBUMIN [2]: 4.17 G/DL
ALKALINE PHOSPHATASE [2]: 321.83 u/L
ASPARTATE AMINOTRANSFERASE [2]: 99.5 u/L
BLOOD UREA NITROGEN [2]: 13.33 mg/dL
CARBON DIOXIDE [2]: 33.67 mmol/L
CHLORIDE [2]: 99.83 MEQ/L
CHOLESTEROL [2]: 64 mg/dL
CREATINE PHOSPHOKINASE [2]: 275.33 u/L
CREATININE [2]: 0.21 mg/dL
GLUCOSE [2]: 146.17 mg/dL
LACTATE DEHYDROGENASE [2]: 101 u/L
LIPASE [2]: 9.83 u/L
PHOSPHORUS [2]: 8.82 mg/dL
POTASSIUM [2]: 5.51 MEQ/L
SODIUM [2]: 143.2 MEQ/L
TOTAL BILIRUBIN [2]: 0.18 mg/dL
TOTAL PROTEIN [2]: 5.83 G/DL
URIC ACID [2]: 0.63 mg/dL
ABSOLUTE EOSINOPHIL [3]: 44 CELLS/uL
ABSOLUTE LYMPHOCYTE [3]: 11229.17 CELLS/uL
ABSOLUTE MONOCYTE [3]: 321.83 CELLS/uL
ABSOLUTE SEGMENTED NEUTROPHIL [3]: 3421.67 CELLS/uL
BASOPHIL [3]: 0%
EOSINOPHIL [3]: 0.33%
ERYTHROCYTE COUNT [3]: 6.19 x10E6/uL
HEMATOCRIT [3]: 40.97%
HEMOGLOBIN [3]: 15.07 G/DL
LEUKOCYTE COUNT [3]: 15.02 x10E3/uL
LYMPHOCYTE [3]: 73%
MEAN CORPUSCULAR HEMOGLOBIN [3]: 24.45 pg
MEAN CORPUSCULAR HEMOGLOBIN CONCENTRATION [3]: 36.95 G/DL
MEAN CORPUSCULAR VOLUME [3]: 66.17 fL
MONOCYTE [3]: 2.17%
NEUTROPHIL [3]: 24.5%
NUCLEATED RED BLOOD CELLS [3]: 0 /100WBC
PLATELET COUNT [3]: 1278.5 x10E3/uL
ALANINE AMINOTRANSFERASE [3]: 102.5 u/L
ALBUMIN [3]: 4.68 G/DL
ALKALINE PHOSPHATASE [3]: 305.83 u/L
ASPARTATE AMINOTRANSFERASE [3]: 279.83 u/L
BLOOD UREA NITROGEN [3]: 16.33 mg/dL
CARBON DIOXIDE [3]: 16.33 mmol/L
CHLORIDE [3]: 100.33 MEQ/L
CHOLESTEROL [3]: 70 mg/dL
CREATINE PHOSPHOKINASE [3]: 845.5 u/L
CREATININE [3]: 0.19 mg/dL
GLUCOSE [3]: 129.67 mg/dL
LACTATE DEHYDROGENASE [3]: 1003.17 u/L
LIPASE [3]: 9 u/L
PHOSPHORUS [3]: 15.78 mg/dL
POTASSIUM [3]: 7.57 MEQ/L
SODIUM [3]: 142.47 MEQ/L
TOTAL BILIRUBIN [3]: 0.3 mg/dL
TOTAL PROTEIN [3]: 6.17 G/DL
URIC ACID [3]: 3.2 mg/dL

From ChEMBL document CHEMBL3885881, “DrugMatrix”
